In the supplement of paper PMC10307832:

What follows are cell lines tested with CC1(C)CCC(CN2CCN(c3ccc(C(=O)NS(=O)(=O)c4ccc(NCC5CCOCC5)c([N+](=O)[O-])c4)c(Oc4cnc5[nH]ccc5c4)c3)CC2)=C(c2ccc(Cl)cc2)C1 [Venetoclax] + CS(=O)(=O)CCNCc1ccc(-c2ccc3ncnc(Nc4ccc(OCc5cccc(F)c5)c(Cl)c4)c3c2)o1 [Lapatinib] (partner 2 µM) (assay: relative viability (nuclei count vs DMSO), 5 days (fraction); higher = more cells survive). Details: first compound 1 µM.
Summary of the method: (§1)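 Cells from lung cancer lines were seeded into 1536-well plates and, one day later, dosed by pin tool. Treatments were either a single drug or a fixed dose of an anchor drug with five library-drug doses (not always all listed) in √10 steps. After 5 days, nuclei were stained in a one-step fixation (final 0.05% Triton X-100, 1% formaldehyde, 1 ug/ml Hoechst) and counted on 4× images, and relative viability is the treated-to-vehicle nuclei ratio, as the median of duplicate plates.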

Cell Line	relative viability
NCI-H1975	0.863
NCI-H1563	0.953
NCI-H1915	0.9
NCI-H2087	1.05
HCC-366	0.951
RERF-LC-KJ	0.832
EKVX	0.185
NCI-H1651	0.764

These cell lines were tested with Cn1cnc2c(F)c(Nc3ccc(Br)cc3Cl)c(C(=O)NOCCO)cc21 [Selumetinib] + COc1cccc2cc(-c3nc([C@H]4CC[C@H](C(=O)O)CC4)n4ncnc(N)c34)[nH]c12 [OSI-027] (partner 0.5 µM) in the same assay as above. Details: first compound 0.02 µM.
Summary of the method: as §1

Cell Line	relative viability
LXF-289	0.796
NCI-H322M	0.487
HCC-78	0.346
BEN	0.276
HCC-15	0.522
HCC-827	0.782
NCI-H460	0.52
LU99A	0.338
NCI-H2085	0.71
A-427	0.482
NCI-H520	0.242
NCI-H838	0.31
NCI-H1792	0.761
NCI-H596	0.775
NCI-H3122	0.709
201T	0.658
NCI-H1993	0.553

Cell Line	relative viability
HOP-62	0.887
NCI-H1355	0.343
NCI-H2405	0.721
NCI-H1437	0.802
NCI-H661	0.804
CAL-12T	0.636
H3255	0.511
NCI-H2347	0.412
NCI-H1975	0.8
NCI-H1563	0.721
NCI-H1915	0.603
NCI-H2087	0.466
HCC-366	0.911
RERF-LC-KJ	0.535
EKVX	0.654
NCI-H1651	0.815

Same assay, conditions: first compound 0.06325 µM

Cell Line	relative viability
LXF-289	0.73
NCI-H322M	0.434
HCC-78	0.397
BEN	0.315
HCC-15	0.344
HCC-827	0.751
NCI-H460	0.425
LU99A	0.308
NCI-H2085	0.499
A-427	0.327
NCI-H520	0.243
NCI-H838	0.327
NCI-H1792	0.727
NCI-H596	0.673
NCI-H3122	0.512
201T	0.674
NCI-H1993	0.585

Cell Line	relative viability
HOP-62	0.751
NCI-H1355	0.33
NCI-H2405	0.661
NCI-H1437	0.56
NCI-H661	0.582
CAL-12T	0.492
H3255	0.661
NCI-H2347	0.294
NCI-H1975	0.57
NCI-H1563	0.713
NCI-H1915	0.425
NCI-H2087	0.434
HCC-366	0.756
RERF-LC-KJ	0.477
EKVX	0.645
NCI-H1651	0.585

Same assay, conditions: first compound 0.2 µM

Cell Line	relative viability
LXF-289	0.648
NCI-H322M	0.477
HCC-78	0.396
BEN	0.274
HCC-15	0.256
HCC-827	0.62
NCI-H460	0.227
LU99A	0.331
NCI-H2085	0.35
A-427	0.321
NCI-H520	0.243
NCI-H838	0.315
NCI-H1792	0.67
NCI-H596	0.693
NCI-H3122	0.417
201T	0.628
NCI-H1993	0.585

Cell Line	relative viability
HOP-62	0.818
NCI-H1355	0.278
NCI-H2405	0.585
NCI-H1437	0.531
NCI-H661	0.571
CAL-12T	0.516
H3255	0.582
NCI-H2347	0.255
NCI-H1975	0.676
NCI-H1563	0.779
NCI-H1915	0.33
NCI-H2087	0.256
HCC-366	0.72
RERF-LC-KJ	0.526
EKVX	0.606
NCI-H1651	0.627

Same assay, conditions: first compound 0.6325 µM

Cell Line	relative viability
LXF-289	0.519
NCI-H322M	0.45
HCC-78	0.385
BEN	0.295
HCC-15	0.19
HCC-827	0.708
NCI-H460	0.225
LU99A	0.301
NCI-H2085	0.428
A-427	0.288
NCI-H520	0.238
NCI-H838	0.252
NCI-H1792	0.611
NCI-H596	0.571
NCI-H3122	0.291
201T	0.691
NCI-H1993	0.632

Cell Line	relative viability
HOP-62	0.5
NCI-H1355	0.277
NCI-H2405	0.412
NCI-H1437	0.324
NCI-H661	0.57
CAL-12T	0.395
H3255	0.593
NCI-H2347	0.177
NCI-H1975	0.527
NCI-H1563	0.783
NCI-H1915	0.301
NCI-H2087	0.177
HCC-366	0.422
RERF-LC-KJ	0.472
EKVX	0.469
NCI-H1651	0.693

These cell lines were tested with CC1(C)CCC(CN2CCN(c3ccc(C(=O)NS(=O)(=O)c4ccc(NCC5CCOCC5)c([N+](=O)[O-])c4)c(Oc4cnc5[nH]ccc5c4)c3)CC2)=C(c2ccc(Cl)cc2)C1 [Venetoclax] + C[C@]1(O)C[C@@H](c2nc(-c3ccc4ccc(-c5ccccc5)nc4c3)c3c(N)nccn32)C1 [Linsitinib] (partner 1 µM) in the same assay as above. Details: first compound 0.01 µM.
Summary of the method: as §1

Cell Line	relative viability
LXF-289	0.973
NCI-H322M	0.913
HCC-78	0.494
BEN	0.91
HCC-15	0.763
HCC-827	0.997
NCI-H460	0.827
LU99A	0.482
NCI-H2085	0.881
A-427	1.06
NCI-H520	1.04
NCI-H838	1.11
NCI-H1792	0.469
NCI-H596	1.03
NCI-H3122	1.08
201T	0.986
